Test system: BxPC-3 cells
Assay: Apoptosis-inducing effect
Format: cell-based
Conditions: BxPC-3, 120 hours, over the tested concentrations
Procedure: BxPC-3 cells (purchased from: ATCC) were inoculated into 6-well plates, and then treated with Trop2-ADC-14 (0.020, 0.196, and 1.963 nM), DS-1062 (0.020, 0.196, and 1.963 nM), the mAb in Trop2-ADC-14 (i.e., antibody h23-12) (6.728 nM) and Compound 3 (0.1, 1, and 10 nM) for 120 hours. Next, the cells were harvested, and Annexin-V-FITC and PI were added thereto, and the cells were stained at room temperature for 15 minutes in dark, and finally were re-suspended in the added 300 μl of 1× binding buffer. Apoptosis was detected with a flow cytometer (BD AccuriTMC6 Plus flow cytometer), for which 1×10^4 cells were gated for each group. Experimental data was analyzed using software BD CSampler™ Plus C6.

For CC[C@@]1(O)C(=O)OCc2c1cc1n(c2=O)Cc2c-1nc1ccc(N)c3c1c2C(F)(F)CC3 [Compound 3], the apoptosis-inducing effect was “induced apoptosis of BxPC-3 cells in a concentration-dependent manner”.
